# In PubChem BioAssay (NCI):
# Several values for one entry are separate records, joined by “and”; a condition that tells them apart may be missing. Equal values may be shown once.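 A five-concentration, 48-hour dose response in 96-well plates underlies each endpoint, interpolated linearly between surrounding concentrations. Here, GI50 denotes the concentration required for 50% inhibition of growth. TGI marks complete inhibition of growth.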
# Columns and labels:
# Assay in all cases: NCI-60 cell line screen, 48 h
# [1] = tested on: 786-0 renal
# [2] = tested on: HOP-92 NSCLC
# [3] = tested on: HOP-62 NSCLC
# [4] = tested on: SK-MEL-28 melanoma
# [5] = tested on: SF-539 CNS
# [6] = tested on: UACC-62 melanoma
# [7] = tested on: UACC-257 melanoma
# [8] = tested on: TK-10 renal
# [9] = tested on: OVCAR-3 ovarian
# [10] = tested on: BT-549 breast
SMILES,GI50 [1],TGI [1],GI50 [2],TGI [2],GI50 [3],TGI [3],GI50 [4],TGI [4],GI50 [5],TGI [5],GI50 [6],TGI [6],GI50 [7],TGI [7],GI50 [8],TGI [8],GI50 [9],TGI [9],GI50 [10] [µM],TGI [10] [µM]
NC(=O)c1c(NC(=O)c2cccs2)sc2c1CCC(=O)C2,4.34 µM,> 100 µM,1.38 µM,4 µM,3.65 µM,> 100 µM,4.52 µM,> 100 µM,1.54 µM,5.06 µM,0.811 µM,4.43 µM,2.73 µM,7.08 µM,6.33 µM,> 100 µM,1.8 µM,5.93 µM,2.08,8.41
CCN(CC)CCNC(=O)c1cccc2c1-c1ccccc1C2=O,> 100 µM,> 100 µM,> 100 µM,> 100 µM,> 100 µM,> 100 µM,> 100 µM,> 100 µM,95.1 µM,> 100 µM,> 100 µM,> 100 µM,> 100 µM,> 100 µM,> 100 µM,> 100 µM,> 100 µM,> 100 µM,> 100,> 100
O/N=C(\CC(O)(C(F)(F)F)C(F)(F)F)c1cccs1,–,> 10 µM,–,> 10 µM,–,> 10 µM,–,> 10 µM,–,> 10 µM,–,> 10 µM,–,> 10 µM,–,> 10 µM,–,> 10 µM,–,> 10
COc1ccc2c(c1)C(=Nc1ccc(F)c(Cl)c1)c1c-2c(Nc2ccc(F)c(Cl)c2)nc2ccccc12,14.9 µM,42.8 µM,33.8 µM,> 100 µM,13.7 µM,32.4 µM,> 100 µM,> 100 µM,27 µM,> 74.9 µM,22.3 µM,> 70.5 µM,> 60.6 µM,> 100 µM,34.5 µM,> 80 µM,42.7 µM,> 100 µM,23.4,> 74.4
Cc1nc2sc(C(=O)Nc3cccc(Br)c3C)c(N)c2cc1C(O)c1ccccc1 (stereo not given),0.0601 µM,10.1 µM,1.33 µM,16.5 µM,0.0549 µM,18.5 µM,1.51 µM,22 µM,0.0256 µM,0.0733 µM,0.0566 µM,9.59 µM,1.46 µM,27 µM,1.49 µM,> 63 µM,0.032 µM,1.02 µM,0.044,2.93
O=C1/C(=C\c2ccc(F)cc2)CN(C(=O)c2ccccc2F)C/C1=C\c1ccc(F)cc1,1.61 µM,3.17 µM,1.86 µM,5.63 µM,2.04 µM,4.66 µM,1.82 µM,3.36 µM,1.72 µM,3.2 µM,1.46 µM,3.05 µM,1.71 µM,3.47 µM,1.97 µM,4.27 µM,1.67 µM,3.11 µM,1.85,3.41
CN1CCC2(CC1)N=C(SCC(=O)Nc1cnc3ccccc3c1)C(c1ccc(Br)cc1)=N2,1.5 µM,2.85 µM,1.22 µM,3.35 µM,3.42 µM,14.7 µM,1.79 µM,3.3 µM,1.74 µM,3.41 µM,1.71 µM,3.21 µM,1.79 µM,3.31 µM,1.99 µM,4.49 µM,3.29 µM,12 µM,12,24.4
N#C/C(=C\c1cc(O)c(O)c(O)c1)C(N)=O,–,> 100 µM,–,> 100 µM,–,> 100 µM,–,> 100 µM,–,> 100 µM,–,> 100 µM,–,> 100 µM,–,> 100 µM,–,> 100 µM,–,> 100
CC1(C)C(N2CCOCC2)CS1(=O)=O (stereo not given),–,> 10 µM,–,> 10 µM,–,> 10 µM,–,> 10 µM,–,> 10 µM,–,> 10 µM,–,> 10 µM,–,> 10 µM,–,> 10 µM,–,> 10
Cc1cc(O)ccc1C1=NN(c2ccc(S(N)(=O)=O)cc2)C(=O)CC1,18.9 µM and 43.6 µM,50 µM and > 100 µM,11.1 µM and 18.5 µM,50 µM and 75.5 µM,12.8 µM and 25 µM,46 µM and 86.9 µM,25.7 µM and > 100 µM,50 µM and > 100 µM,6.66 µM and 19.4 µM,50 µM and > 100 µM,2.74 µM and 3.68 µM,50 µM and > 100 µM,31.3 µM and > 100 µM,50 µM and > 100 µM,> 50 µM and 15.9 µM,> 50 µM and 52.7 µM,2.69 µM and 8.06 µM,29.9 µM and 71 µM,1.49,43.6
Cc1ccc(C[As+](c2ccccc2)(c2ccccc2)c2ccccc2)cc1,3.15 µM,> 46.4 µM,0.158 µM,0.961 µM,1.5 µM,32.9 µM,0.927 µM,18.5 µM,1.71 µM,28.3 µM,0.371 µM,12.6 µM,0.279 µM,1.75 µM,2.01 µM,20.5 µM,0.611 µM,13.9 µM,0.392,8.26
